The nature of this series: Final pH of the formulation after dissolution in 0.01-molar hydrochloric acid / release. The following applies: 0.1 g solid in 100 g of 0.01-molar hydrochloric acid, 400 rpm (FIG. 2). Type of series: physicochemical. How it is done: For verification of the final pH after dissolution, 100 g of 0.01-molar hydrochloric acid was put in a beaker and stirred with an inclined-vane stirrer at 400 rpm. Then 0.1 g of the solid to be verified (formulation from example 1, and magnesium hydroxide) was added and the increase in pH was recorded (pH-meter: Knick®Calimatic 766).

As for `[Mg+2].[OH-].[OH-]` [pure magnesium hydroxide, magnesium hydroxide], the “time after which the final pH is established” value was “about 1800 s”.
